How the values were obtained:
[1] = test system: cytosolic β-catenin in melanoma cell lines A375 and SK-Mel-5; test: Western blot of cytosolic β-catenin; format: cell-based, human; conditions: 10 μM or 20 μM
Procedure: […] Protein concentrations were measured using Bio-Rad Protein Assay reagent. Whole cell lysate protein (5-20 ug) were boiled for 5 min and separated by 10-20% SDS-PAGE. Proteins were transferred to an Immobilon-P membrane (Millipore Corp., Bedford, Mass.) using semi-dry transfer cell (Bio-Rad; Benicia, Calif.). The membranes were blocked with 5% nonfat milk powder and 0.1% Tween 20 in Tris-buffer saline overnight at 4° C. and then incubated with primary antibody for 1 h at room temperature. Membranes were washed in 5% nonfat milk powder and 0.1% Tween 20 in Tris-buffer saline for three 10-min periods. Horseradish peroxidase-conjugated goat anti-rabbit or donkey anti-mouse antibodies were used as secondary antibodies. Proteins were visualized with chemiluminescence luminol reagents (Santa Cruz Bio-technology). Anti-Dvl-3, and anti-Survivin, antibodies were from Santa Cruz Biotechnology (Santa Cruz, Calif.). Anti-Caspase3 antibody was from Oncogene (Cambridge, Mass.). Anti-β-Actin antibody was from Sigrna-Aldrich Corp. (St. Louis, Mo.). Anti-β-catenin antibody was from Transduction Laboratories (Lexington, Ky.). Anti-Cytochrome c antibody was from BD Biosciences (San Diego, Calif.). For detecting alteration of β-catenin cytosolic extracts were prepared and examined as described previously in the publications from our lab. […]

[2] = test system: NSCLC cell lines A549, H358, and H322; test: Dose titration, cell killing; format: cell-based, human; conditions: 7.5-30 μM tested, 3 days
Procedure: (§1) Typically, the small molecule compounds of the present invention were dissolved in DMSO at a concentration of 30 mM. The small molecule compounds were then tested under cell culture conditions at different concentrations ranging from 0, 10, 30, 50, to 100 uM. To determine cell survival after treatment, the cells were incubated with the small molecule compounds in 6-well plates for about 3 days. After removal of the cell culture medium, 1-ml of 0.5% crystal violet solution (prepared in 20% ethanol and 20% methanol) was added to stain the cells for 5 min. Then the crystal violet solution was rinsed clean with tap water. Cell survival was estimated based on the density of crystal stained plates.
Dose titration experiments of small molecule compound FN1-8 was performed using the NSCLC cell lines A549, H358, and H322. A 549, H358, and H322 cells were plated in 6-well plates and incubated with DM SO (control) or 7.5 μM, 10 μM, 15 μM, 20 μM, and 30 μM of FN1-8, respectively, for 3 days. A dramatic and dose-dependent cell killing in these cell lines was observed when FN1-8 was added at 15 μM or more. FN1-8 induced cell killing in A549 and […] at slightly lower concentrations than in H322 cells (data not shown). After 3 days, approximately 28% of the A549 cells and 58% of H358 underwent apoptosis when incubated with 20 μM FN1-8 (Table 3).

SK-Mel-2 (melanoma) = test: Apoptosis analysis (Annexin V FITC, flow cytometry); format: cell-based, human
Procedure: (§2) Apoptosis was analyzed by using an Annexin V FITC Apoptosis Detection Kit (Biosource, Camarillo, Calif.), according to the manufacturer's protocol. After treatment with different small molecule compounds at various concentrations for about 3 days, cells were harvested by trypsinization, stained and immediately analyzed by flow cytometry (FACScan; Decton Dickinson, Franklin Lake, N.J.). Early apoptotic cells with exposed phosphatidylserine but intact cell membranes will bind to Annexin V-FITC, but not propidium iodide (PI). Cells in necrotic or late apoptotic stages will be labeled with both Annexin V-FITC and PI. “% apoptotic cells” or “% apoptosis” refers to the combined early and late apoptotic cells.
(§3) Dose titration experiments of small molecule compound FN1-8 was performed using the melanoma cell lines A375, G361, SK-Mel-2, SK-Mel-5, and SK-Mel-28. A 375 cells were plated in 6-well plates and incubated with DM SO (control) or 2 μM, 5 μM, 10 μM, 20 μM, and 40 μM of FN1-8, respectively, for 3 days. A dramatic and dose-dependent cell killing in this cell line was observed when FN1-8 was added at 10 μM or more (data not shown). […] After 4 days of incubation with 20 μM FN1-8, approximately 20% of the Malme-3M cells, 28% of SK-Mel-2 cells, 36% of SK-Mel-5 cells, 41% of A375 cells, and 17% of G361 cells underwent apoptosis, while less than 3% of normal skin fibroblast cells underwent apoptosis under the same conditions (Table 3).

A375 (melanoma) = test: as above; format: cell-based, human
Procedure: as §2, §3

Malme-3M (melanoma) = test: as above; format: cell-based, human; conditions: 10 μM
Procedure: as §2, §3

[3] = test system: Malme-3 (normal skin cells); test: as above; format: cell-based, human; conditions: 10 μM
Procedure: as §2, §3

G361 (melanoma) = test: as above; format: cell-based, human
Procedure: as §2, §3

SK-Mel-28 (melanoma) = test: as above; format: cell-based, human
Procedure: as §2, §3

SK-Mel-5 (melanoma) = test: as above; format: cell-based, human
Procedure: as §2, §3

[4] = test system: human glioma cell line U87; test: Cell survival assay (crystal violet); format: cell-based; conditions: U87, 50 μM
Procedure: as §1
The cell-based cytotoxicity assay described herein was used to determine the effect of small molecule compounds FN1-5 and FN1-8 in the human glioma cell line U87. Viability of U87 cells was analyzed after treatment with 30 and 50 μM FN1-5 and 10, 30, and 50 μM FN1-8.

O=C(NCCc1ccc(O)cc1)C1C(c2ccccc2)=NN(c2ccccc2)C1c1ccccc1 (stereo not drawn) [FN1-8, N-(2-(4-Hydroxyphenyl)ethyl)-1,3,5-triphenyl-4,5-dihydro-pyrazole-4-carboxyamide]
cytosolic β-catenin level [1]: down-regulated
concentration at which dramatic and dose-dependent cell killing was observed [2]: ≥ 15 µM
% of apoptotic cells (SK-Mel-2 (melanoma); SK-Mel-2, 10 μM): 9%
% of apoptotic cells (SK-Mel-2 (melanoma); SK-Mel-2, 20 μM, 4 days of incubation): 25.3%
% of apoptotic cells (A375 (melanoma); A375, 10 μM): 35.8%
% of apoptotic cells (A375 (melanoma); A375, 20 μM, 4 days of incubation): 39.7%
% of apoptotic cells (Malme-3M (melanoma)): 10.5%
% of apoptotic cells [3]: 2.1%
% of apoptotic cells (G361 (melanoma); G361, 10 μM): 7.5%
% of apoptotic cells (G361 (melanoma); G361, 20 μM, 4 days of incubation): 15.5%
% of apoptotic cells (SK-Mel-28 (melanoma); SK-Mel-28, 10 μM): 7.7%
% of apoptotic cells (SK-Mel-28 (melanoma); SK-Mel-28, 20 μM): 11.8%
% of apoptotic cells (SK-Mel-5 (melanoma); SK-Mel-5, 10 μM): 7.9%
% of apoptotic cells (SK-Mel-5 (melanoma); SK-Mel-5, 20 μM, 4 days of incubation): 34.9%
cell killing [4]: dramatic cell killing

Source: patent US7714014B2, “Targeting GLI proteins in human cancer by small molecules” (The Regents of the University of California, priority 2005, dated 2010)
